Measurements from patent US20240228488A1 (TAKEDA PHARMACEUTICAL COMPANY LIMITED, priority 2021, published 2024).

Legend:
[1] = molecular target: human activated kallikrein enzyme (Homo sapiens, UniProt P03952); assay: Plasma kallikrein inhibition, fluorogenic PFR-AMC substrate, 500 pM activated kallikrein format; assay type: biochemical; conditions: 500 pM activated kallikrein, 300 uM PFR-AMC, 30 min preincubation, 10 min reaction; read-out: Primary Dose Response Assay: Average EC50
Method in brief: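 High-enzyme format of the fluorogenic peptide assay, with EC50 taken from AMC signal: 500 pM activated kallikrein, 300 uM Pro-Phe-Arg-AMC, 30 min compound preincubation and 10 min reaction, all at room temperature, pH 7.5.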

plasma kallikrein = molecular target: T1, plasma kallikrein (Homo sapiens, UniProt P03952); assay: Neat human plasma assay, FXIIa contact pathway-activated, PFR-AMC substrate; assay type: biochemical; conditions: citrated human plasma 78% final, 10 nM human FXIIa, 100 μM PFR-AMC; read-out: Human Plasma Assay: IC90
T1 construct: from tissue
T1 sequence (P03952 391-638 limits assumed): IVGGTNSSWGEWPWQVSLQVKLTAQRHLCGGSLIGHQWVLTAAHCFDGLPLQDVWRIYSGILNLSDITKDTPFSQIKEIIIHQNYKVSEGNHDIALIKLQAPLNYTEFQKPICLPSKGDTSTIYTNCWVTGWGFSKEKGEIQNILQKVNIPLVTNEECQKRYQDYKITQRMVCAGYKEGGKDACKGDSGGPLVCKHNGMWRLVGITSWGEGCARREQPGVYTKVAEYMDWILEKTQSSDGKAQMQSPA
T1 sequence (P03952 20-390 partner limits assumed): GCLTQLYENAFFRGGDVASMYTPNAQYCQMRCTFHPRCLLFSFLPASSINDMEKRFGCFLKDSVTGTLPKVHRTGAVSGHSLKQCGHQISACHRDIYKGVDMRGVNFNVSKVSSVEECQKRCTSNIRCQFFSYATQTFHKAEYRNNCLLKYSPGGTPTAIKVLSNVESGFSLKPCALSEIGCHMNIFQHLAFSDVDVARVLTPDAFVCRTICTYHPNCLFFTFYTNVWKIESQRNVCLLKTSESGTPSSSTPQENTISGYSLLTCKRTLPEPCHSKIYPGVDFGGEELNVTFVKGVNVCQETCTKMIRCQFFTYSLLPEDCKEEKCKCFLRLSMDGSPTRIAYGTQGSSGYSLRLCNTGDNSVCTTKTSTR
Method in brief: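 Compound inhibition of plasma kallikrein measured as PFR-AMC (100 μM) cleavage rate over 5 min at room temperature in 78% citrated human plasma activated with 10 nM FXIIa (Tris pH 7.5 buffer). IC50/IC90 from 4-parameter fit of rate versus inhibitor concentration.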

Chain of human activated kallikrein enzyme (P03952 391-638 limits assumed): as the sequence (P03952 391-638 limits assumed) above
Chain of human activated kallikrein enzyme (P03952 20-390 partner limits assumed): as the sequence (P03952 20-390 partner limits assumed) above

| EC50 [1] [nM] | IC90 (plasma kallikrein) [nM] | Compound |
| --- | --- | --- |
| 1 to 10 | 400 to 1500 | COc1ccc(C#N)c([C@H]2C[C@@H]2C(=O)Nc2cc(OCc3cn4cc(C5CC5)cc(N5CC(=O)N(C)C5=O)c4n3)cnn2)c1 (racemic) [Example 559, rac-(1S*,2S*)-2-(2-cyano-5-methoxyphenyl)-N-(5-((6-cyclopropyl-8-(3-methyl-2,4-dioxoimidazolidin-1-yl)imidazo[1,2-a]pyridin-2-yl)methoxy)pyridazin-3-yl)cyclopropane-1-carboxamide] |
| < 1 | < 400 | O=C1CN(c2cc(C3CC3)cn3cc(CNc4cc(NC(=O)[C@H]5C[C@@H]5c5cc(Cl)ccn5)nc(O)n4)nc23)C(=O)N1 [Example 487, (1S,2S)-2-(4-chloropyridin-2-yl)-N-(6-(((6-cyclopropyl-8-(2,4-dioxoimidazolidin-1-yl)imidazo[1,2-a]pyridin-2-yl)methyl)amino)-2-hydroxypyrimidin-4-yl)cyclopropane-1-carboxamide] |
| 1 to 10 | 1500 to 10000 | O=C(Nc1cc(NCc2cn3cc(C4CC4)cc(N4C[C@@H](O)CC4=O)c3n2)ncn1)[C@H]1C[C@@H]1c1cccc(Cl)c1 (relative stereo) [Example 62, (rac-(1S*,2S*))-2-(3-chlorophenyl)-N-(6-(((6-cyclopropyl-8-((S)-4-hydroxy-2-oxopyrrolidin-1-yl)imidazo[1,2-a]pyridin-2-yl)methyl)amino)pyrimidin-4-yl)cyclopropane-1-carboxamide] |
| < 1 | 400 to 1500 | CN1C(=O)CN(c2cc(C3CC3)cn3cc(CNc4cc(NC(=O)[C@H]5C[C@@H]5c5cccc(Cl)c5)ncn4)nc23)C1=O [Example I-169, (1S,2S)-2-(3-chlorophenyl)-N-(6-(((6-cyclopropyl-8-(3-methyl-2,4-dioxoimidazolidin-1-yl)imidazo[1,2-a]pyridin-2-yl)methyl)amino)pyrimidin-4-yl)cyclopropane-1-carboxamide] |
| < 1 | 1500 to 10000 | Cc1ccnc([C@H]2C[C@@H]2C(=O)Nc2cc(NC(C)c3cn4cc(C5CC5)cc(N5CC(=O)N(C)C5=O)c4n3)ncn2)n1 (relative stereo) [Example 449, rac-(1S*,2S*)—N-(6-((1-(6-cyclopropyl-8-(3-methyl-2,4-dioxoimidazolidin-1-yl)imidazo[1,2-a]pyridin-2-yl)ethyl)amino)pyrimidin-4-yl)-2-(4-methylpyrimidin-2-yl)cyclopropane-1-carboxamide] |

Second part, the compound before the results:

| Compound | EC50 [1] [nM] | IC90 (plasma kallikrein) [nM] |
| --- | --- | --- |
| Cc1ccnc([C@H]2C[C@@H]2C(=O)Nc2cc(NCc3cn4cc(C5CC5)cc(N5CC(=O)N(C)C5=O)c4n3)c(C(F)(F)F)nn2)n1 [Example I-640, (1S,2S)—N-(5-(((6-cyclopropyl-8-(3-methyl-2,4-dioxoimidazolidin-1-yl)imidazo[1,2-a]pyridin-2-yl)methyl)amino)-6-(trifluoromethyl)pyridazin-3-yl)-2-(4-methylpyrimidin-2-yl)cyclopropane-1-carboxamide] | < 1 | < 400 |
| O=C(Nc1cc(NCc2cn3cc(C4CC4)cc(N4CCOCC4)c3n2)ccn1)[C@H]1C[C@@H]1c1cccc(Cl)c1 [Example 129, (1S,2S)-2-(3-chlorophenyl)-N-(4-(((6-cyclopropyl-8-morpholinoimidazo[1,2-a]pyridin-2-yl)methyl)amino)pyridin-2-yl)cyclopropane-1-carboxamide] | < 1 | 1500 to 10000 |
| Cc1ccnc([C@H]2C[C@@H]2C(=O)Nc2cc(N(C)Cc3cn4cc(C5CC5)cc(N5CC(=O)N(C)C5=O)c4n3)cnn2)n1 [Example I-254, (1S,2S)-N-(5-(((6-cyclopropyl-8-(3-methyl-2,4-dioxoimidazolidin-1-yl)imidazo[1,2-a]pyridin-2-yl)methyl)(methyl)amino)pyridazin-3-yl)-2-(4-methylpyrimidin-2-yl)cyclopropane-1-carboxamide] | < 1 | < 400 |
